Values quoted from earlier work as cited in patent publication US20200261389A1 (priority 2014, published 2020).
Like-named read-outs stand apart in the source and are kept apart here.

Assays:
[1] = test system: zinc-dependent metalloproteinases; settings: for reduction of GP shedding: higher concentrations (25-50 mM)
retroviruses = settings: millimolar concentrations, in vitro
cultured cells = settings: added to cultured cells
[2] = test system: Human Foreskin (HF) cells infected with HSV-2-strain G; settings: 3 to 1.5 mM

## c1cnc2c(c1)ccc1cccnc12 [1,10-phenanthroline]
Leukemia cells
  apoptosis / cell death of leukemia cells: DNA fragmentation and cell death occurred

## CNC(=O)[C@@H](NC(=O)[C@H](CC(C)C)[C@H](O)C(=O)NO)C(C)(C)C [BB2516]
[1]; concentration of 0.5 mM
  inhibition of glycoprotein shedding: inhibitory effects were observed

## COc1ccc(S(=O)(=O)N(Cc2cccnc2)[C@@H](C(=O)NO)C(C)C)cc1 [CGS-27023A]
[1]
  reduction of GP shedding: reduced GP shedding

## O=C(O)CN(CCN(CC(=O)O)CC(=O)O)CC(=O)O [EDTA, ethylenediaminetetraacetic acid]
retroviruses
  effect on retroviruses: partial disintegration of viral membranes

## O=C(O)CN(CCOCCOCCN(CC(=O)O)CC(=O)O)CC(=O)O [EGTA, ethylene glycol tetraacetic acid]
retroviruses
  effect on retroviruses: partial disintegration of viral membranes

## CNC(=O)[C@H](Cc1c[nH]c2ccccc12)NC(=O)[C@@H](CC(=O)NO)CC(C)C [GM6001]
[1]; concentration of 5 mM
  inhibition of glycoprotein shedding: inhibitory effects were observed

## COc1ccc(S(=O)(=O)N(CC(=O)NO)CC(C)C)cc1 [MMP-3 inhibitor II]
[1]
  reduction of GP shedding: reduced GP shedding

## COc1ccc(S(=O)(=O)N2Cc3ccccc3C[C@@H]2C(=O)NO)cc1 [MMP-8 inhibitor I]
[1]; concentration of 5 mM
  inhibition of glycoprotein shedding: inhibitory effects were observed

## CC(C)C[C@H](CC(=O)NO)C(=O)N[C@@H](Cc1ccc2ccccc2c1)C(=O)N[C@@H](C)C(=O)NCCN [TAPI-I]
[1]
  reduction of GP shedding: reduced GP shedding

## c1ccc(CN(CCN(Cc2ccccn2)Cc2ccccn2)Cc2ccccn2)nc1 [TPEN, N,N,N′,N′-tetrakis-2-pyridyl methyl-ethylene diamine]
Cultured cells
  apoptosis of cultured cells: induces apoptosis

## O=C(O)c1ccccn1 [picolinic acid]
Leukemia cells
  apoptosis / cell death of leukemia cells: induces apoptosis
[2]
  apoptosis of infected cells: cause apoptosis of HF infected cells
